system: P. falciparum 3D7 growth, pLDH absorbance; experiment: P. falciparum 3D7 growth inhibition, dose response, strain 3D7 (AID 2305)

Structure (SMILES)	IC50
C(=N\Nc1nccc2sc(-c3ccccc3)cc12)/c1cccnc1	820 nM
Cc1ccc(CN2CCCN(Cc3ccc(C(=O)Nc4ccc(Cl)cc4)cc3)CC2)s1	1110 nM
COc1ccc(-c2cccc(NC(=O)c3cccc(C#N)c3)c2)cc1CN1CCCN(C)CC1	190 nM
COc1cc(NC(=O)/C=C/c2cc3ccccc3n2C)ccc1OCCN(C(C)C)C(C)C	390 nM
Cc1ccc(-c2cc(C(=O)Nc3ccc(S(=O)(=O)N4CCCCC4)cc3)[nH]n2)c(O)c1	1770 nM
CN(CC(=O)Nc1cc(C(F)(F)F)ccc1-n1cncn1)Cc1ccc2ccccc2c1	230 nM
CS(=O)(=O)NCCCNCc1cccc(-c2csc(-c3nc4ccccc4[nH]3)c2)c1	1010 nM
Cc1ccccc1C(=O)Nc1cccc(-c2nc3ncccn3c2C)c1	760 nM
Cc1cccc2[nH]c(-c3ccc(-c4cccc(CN5CCCC5CN)c4)cc3)nc12 (centres undefined)	910 nM
O=C(Nc1ccc(-c2nc3ccccc3[nH]2)cc1)c1ccc(Cl)s1	590 nM
COc1ccc(CNCc2ccc(-c3cccc(-c4nc5ccccc5[nH]4)c3)cc2)cc1	210 nM
COc1cc2nc(SCCCC#N)n(C3CCCCCC3)c(=N)c2cc1OC	1140 nM
CCN(CC)CCON=Cc1cc(C)c2[nH]c3ccc(OCc4ccccc4)cc3c2c1C	970 nM
C#CCN1CCC2=C(C1)c1c(O)cc(C(C)C(C)CCc3ccc(F)cc3)cc1OC2(C)C (centres undefined)	180 nM
O=c1cc(NCCCNCc2ccccc2-c2ccccc2)[nH]c2ccccc12	980 nM
Cc1sc(CNCCCNc2cc(=O)c3ccccc3[nH]2)cc1Br	760 nM
CC[C@H]1CN2CC[C@H]1C[C@@H]2[C@@H](O)c1cc(Cl)nc2ccc(OC)cc12	60 nM
CCOc1ccc2nc3cc(NC(=O)c4ccco4)ccc3c(N)c2c1	800 nM
c1ccc2c(CNCCCCCCNCc3c(OCC4CC4)ccc4ccccc34)c(OCC3CC3)ccc2c1	930 nM
COc1ccc(Cl)cc1NC(=O)Nc1ccc2c(c1)CCN(C1CCC1)CC2	810 nM
CCCNCc1ccc(-c2ccc(CN(C(=O)c3nn(-c4ccccc4)nc3C)C(C)CN(C)C)cc2)nc1 (centres undefined)	920 nM
Cc1cc2c(cc1C(F)(F)F)N(C(=O)Nc1cc(C(=O)NCCN(C)C)cc(C(F)(F)F)c1)CC2	730 nM
O=S(=O)(c1cccc(Cl)c1F)N(CCC(O)(C(F)(F)F)C(F)(F)F)Cc1cccc(O)c1	920 nM
C(=C(c1cccs1)c1cccs1)c1ccc(CNC2CCN(Cc3ccccc3)CC2)cc1	160 nM
CCCN(Cc1nnc(-c2ccco2)o1)C(=O)C1CCN(c2ncc(C(F)(F)F)cc2Cl)CC1	690 nM

Structure (SMILES)	IC50
CCCCCCc1cc(O)c2c3c(c(=O)oc2c1)CCN(C)C3	670 nM
O=C(NC1CCN(Cc2ccc(O)cc2)CC1)c1ccc(Cl)c(Cl)c1	1180 nM
Cn1cncc1C(=O)Nc1ccc(-c2cccc(-c3nc4ccc(C(F)(F)F)cc4[nH]3)c2)cc1	860 nM
Cc1noc(C)c1-c1ccc2c(Nc3ccccc3C(C)(C)C)c(C(=O)NCc3ccc(C(F)(F)F)cc3)cnc2c1	760 nM
CC(=O)Nc1nnc(SCc2c(C)cc(C(C)(C)C)cc2C)s1	700 nM
COc1ccc(C(=O)N2CCC3(CC2)C(=O)N(CC(=O)NCC2CCCCC2)CN3c2ccccc2)cc1	270 nM
N#Cc1ccc(CN2CCC(Oc3ccc(NC(=O)c4ccco4)cc3Cl)C2)cc1 (centres undefined)	330 nM
Cc1cc(N2CCC(NS(=O)(=O)c3ccc(F)cc3)CC2)nc(Nc2cccc(C#N)c2)n1	650 nM
Cc1cccc2[nH]c(-c3cccc(-c4ccc(NC(=O)Cc5ccccn5)cc4)c3)nc12	790 nM
O=C(Nc1ccc(-c2nc3ccccc3[nH]2)cc1)c1cccc(S(=O)(=O)N2CCOCC2)c1	900 nM
COc1ccc(C=CC(=O)NC(=O)c2ccccc2OC(=O)c2ccccc2)cc1OC	910 nM
CCOc1ccc(-c2nonc2NC(=O)c2cccs2)cc1OCC	760 nM
CCOc1ccc2c(NN=Cc3cc(OC)c(OC)c(OC)c3)cc(C)nc2c1	610 nM
O=c1cc(NCCCNCc2cc3ccc(Br)cc3s2)[nH]c2ccccc12	990 nM
O=C(Nc1cccc(CN2CCCN(Cc3ccc(F)cc3)CC2)c1)c1cc2ccccc2s1	790 nM
CCN(CC)CCCC(C)Nc1cc(C)nc2cc(Cl)ccc12 (centres undefined)	730 nM
CC(=O)Oc1c(Cl)c(C)nc(C)c1-c1ccc(Oc2ccc(OC(F)(F)F)cc2)cc1	100 nM
FC(F)(F)c1ccc2nc(-c3ccc(-c4cccc(CNCc5cnn(-c6ccccc6)n5)c4)cc3)[nH]c2c1	650 nM
O=C(NCCN1CCCC1)c1ccc(-c2ccc(-c3nc4ccc(C(F)(F)F)cc4[nH]3)s2)cc1	750 nM
CO/C(=C\C=C\c1cc2cc(Cl)c(Cl)cc2[nH]1)C(=O)NCCCN1CC(C)N(C)CC1C (centres undefined)	1130 nM
CCOC(=O)NCC(=O)Nc1cccc(-c2cccc(-c3nc4ccc(C(F)(F)F)cc4[nH]3)c2)c1	630 nM
C[C@@H](Oc1cc(-n2cnc3ccc(NC(=O)NC(C)(C)C)cc32)sc1C(N)=O)c1ccccc1Cl	330 nM
C=CCc1cc(Br)ccc1OCCCOc1c(N)nc(N)nc1N	190 nM
CCN(CC)S(=O)(=O)c1cc(-c2ccc(=O)n(CC(=O)c3ccc(C)cc3)n2)ccc1C	890 nM
O=C(Nc1ccncc1)c1cn(-c2ccccc2)nc1-c1cccs1	980 nM

Structure (SMILES)	IC50
c1ccc2c(c1)ncc1c3ccccc3[nH]c21	870 nM
Cc1cccn2c(=O)c3cc(C(=O)NC(C)c4ccccc4)c(=N)n(CCc4ccccc4)c3nc12 (centres undefined)	550 nM
O=C(c1ccc(Cl)cc1)N1CCCC(C(=O)N(Cc2nnc(-c3ccccc3Cl)o2)C2CC2)C1 (centres undefined)	230 nM
O=C(NC1CCN(Cc2ccccc2)CC1)c1ccc(-c2nc3cc(Cl)c(Cl)cc3[nH]2)c(F)c1	740 nM
NOCCCOc1ccc(Cl)cc1	570 nM
CCCC(=O)Nc1ccc(OCCCN(Cc2ccccc2F)c2ccc(C#N)c(C(F)(F)F)c2)cc1	590 nM
O=C1NC(c2ccccc2)C2(CCN(CC(O)COc3cccc4ncccc34)CC2)O1 (centres undefined)	740 nM
CC[C@H]1CN(Cc2ccco2)CC[C@H]1CCCc1ccnc2ccc(O)cc12	1270 nM
CCc1cc2c(O)c([N+](=O)[O-])c(=O)oc2cc1OCCCCCOc1cc2oc(=O)c([N+](=O)[O-])c(O)c2cc1CC	260 nM
O=C(Nc1cccc([N+](=O)[O-])c1)Nc1ccc(Cl)c(C(F)(F)F)c1	1120 nM
CCc1c(CCNCCCCCCNCc2ccc3c(c2CC)OCO3)ccc(OC)c1OC	250 nM
Cc1noc(C)c1-c1cccc(CNCc2ccc(-c3cccc(-c4nc5c(C)cccc5[nH]4)c3)cc2)c1	220 nM
O=C(Nc1cccc(-c2ccc(-c3nc4ccc(C(F)(F)F)cc4[nH]3)cc2)c1)Nc1ccc(Cl)c(Cl)c1	890 nM
O=C(Nc1ccc(Cl)c(Cl)c1)Nc1ccc2nccc(N3CCNCC3)c2c1	260 nM
c1ccc(CN2CCC(NCc3ccc(-c4cncc5ccccc45)cc3)CC2)cc1	880 nM
Oc1c(CNC2CCCCC2)cc(Cl)c2ccccc12	840 nM
Cc1cc(-c2cccc(CNC3CCN(C)CC3)c2)ccc1S(=O)(=O)NCCN1CCCC1	980 nM
Oc1ccc2nc(N3CCNCC3)nc(NCCCc3ccccc3)c2c1	1370 nM
CCCCc1cc(O)c2c(c1)OC(C)(C)C=C2C1=CCN(Cc2ccccc2)CC1	250 nM
N#Cc1ccc(/C=C/C(=O)NCCCCCN2CCCN(C(=O)Nc3ccc(Cl)c(C(F)(F)F)c3)CC2)cc1	440 nM
CC(=O)C1(c2ccccc2)CCN(CCC2(c3ccc(Cl)c(Cl)c3)CN(C(=O)C3CCCC3)CCO2)CC1 (centres undefined)	800 nM
Cc1nn(-c2ccccc2)nc1C(=O)N(Cc1ccc(-c2ccc(CNCCc3ccc(S(C)(=O)=O)cc3)cn2)cc1)C(C)CN(C)C (centres undefined)	680 nM
Cc1cc(NC(=O)c2cccs2)ccc1OC1CCN(Cc2ccc(C#N)cc2)CC1	720 nM
CN(C)CCOc1ccc(-c2cc(-c3ccc(Cl)c(O)c3)c(-c3ccncc3)[nH]2)cc1	580 nM
CC1CN(CC(O)Cn2c3ccc(Br)cc3c3cc(Br)ccc32)CC(C)O1 (centres undefined)	780 nM

Structure (SMILES)	IC50
CCOc1ccc(-c2nc(NC(=O)Cc3cccc(OC)c3)sc2C)cc1	730 nM
Cc1c(CCC#N)c(NCc2ccccc2)n2c(nc3ccccc32)c1C#N	880 nM
O=C(NCC1CCN(Cc2ccc3c(c2)OCCO3)C1)c1cc(-c2ccccc2F)cs1 (centres undefined)	1020 nM
O=C(Nc1cccc(Cl)c1)N[C@H]1CCN(Cc2ccc(OCCCN3CCCCC3)cc2)C1	730 nM
CCCCNC(=O)C(C)NC(=O)c1ccc(O)c(-c2ccc(Cl)c(Cl)c2)c1 (centres undefined)	820 nM
COc1ccc(Cl)cc1N1CCN(CCCNC(=O)c2ccc(-c3nc4cc(Cl)c(C)cc4[nH]3)c(F)c2)CC1	180 nM
CC(C)CCN1C(=O)C(NC(=O)Oc2ccccc2)C(=O)N(CC23CC4CC(CC(C4)C2)C3)c2ccccc21 (centres undefined)	750 nM
Oc1ccc2c(c1NCC1CCCCC1)CCCC2	510 nM
Cc1cc(-c2ccc(CNCc3ccc(F)cc3)cc2)ccc1S(=O)(=O)NCCN1CCCC1	720 nM
O=C(NCc1cccc(F)c1)Nc1cccc(-c2cccc(-c3nc4ccccc4[nH]3)c2)c1	390 nM
CCOC(=O)c1ccc(NC(=O)Nc2ccc(-c3cccc(-c4nc5c(C)cccc5[nH]4)c3)cc2)cc1	140 nM
Nc1c2c(nc3ccc(Oc4ccc(Cl)cc4)cc13)CCCC2	970 nM
COc1ccc2nccc([C@@H](O)CN3CCC(NCCOc4cc(C(F)(F)F)ccc4F)CC3)c2c1	110 nM
CC(C)(C)C1CC(=O)C[C@@H]2C(=O)N(c3ccc(Br)cc3)C(=O)[C@H]12 (some centres undefined)	930 nM
COc1ccc(Cn2c(Nc3cccc(C(F)(F)F)c3)nc3ccc(C(=O)NCCN4CCCC4)cc32)cc1Cl	750 nM
Nc1nc(N)c2c(ccc3c2ccn3CCCC(F)(F)F)n1	100 nM
CC(CNCc1cn(Cc2cc(Br)cc(Br)c2)c2ccccc12)CNc1cc(=O)c2ccccc2[nH]1 (centres undefined)	460 nM
O=c1cc(NCCCNC2CCOc3c(Cl)cccc32)[nH]c2ccccc12 (centres undefined)	830 nM
COc1ccc(Cc2c(N)nc3nc(N)nc(N)c3c2C)cc1	190 nM
CCOc1cc(C)ccc1N(C1CCN(CCCCNC(=O)c2ccc(-c3ccc(C(F)(F)F)cc3)cc2)CC1)S(=O)(=O)c1ccccc1	1020 nM
O=C(NC=Nc1cc([N+](=O)[O-])c(-c2ccncc2)n1-c1ccccc1)c1cccc(O)c1	330 nM
CCc1cn2c3c(cc(C(=O)N[C@@H](Cc4ccccc4)[C@H](O)CNC4CCCCC4)cc13)N(C)S(=O)(=O)C2	90 nM
NC(N)=NN=Cc1cc2ccccc2c2ccccc12	180 nM
Cc1[nH]c(C)c(-c2ccc(-c3ccc(F)cc3)nc2)c(=O)c1Br	250 nM

Reference: PubChem BioAssay AID2305 (GlaxoSmithKline (GSK), 2010)
